The numbers were not newly measured in US11147307B2, “Flavor capsules for smoking articles” (PHILIP MORRIS PRODUCTS S.A., priority 2015, dated 2021), which cites them from elsewhere.

As for `OC[C@@H](O)[C@@H](O[C@H]1O[C@H](CO)[C@@H](O)[C@H](O)[C@H]1O)[C@H](O)[C@@H](O)CO` [maltitol], the solubility in water result is reported as “about 200 g/100 ml”.
